Reference: patent US8299056B2 (Signal Pharmaceuticals, LLC, priority 2008, dated 2012)

Molecular target: T1, Syk (Homo sapiens, UniProt P43405)
T1 construct: purchased Carna Biosciences
Test: Syk HTRF assay
Assay type: biochemical
Conditions: IC50 activity level, read-out: Activity Level
Method in brief: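 HTRF kinase assay in HEPES pH 7.6 buffer with MgCl2, DTT and Triton X100; start mix of 87.5 μM ATP and 80 nM biotinylated peptide, 1 h at room temperature. EDTA stop, then Eu-anti-phosphotyrosine/streptavidin-DyLight 647 detection, read as 665/615 nm emission ratio.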

First: CN(c1ccccc1)c1cccc2nc(Nc3ccccc3)nn12 [Example 472, N^5-methyl-N^2,N^5-diphenyl-[1,2,4]triazolo[1,5-a]pyridin-2,5-diamine]
Second: c1ccc(Nc2nc3cccc(-c4ccncc4)n3n2)cc1 [Example 528, N-phenyl-5-(pyridin-4-yl)-[1,2,4]triazolo[1,5-a]pyridin-2-amine]
The IC50 of the first is higher: 1000 to 10000 nM for the first, 250 to 500 nM for the second. The second is the more potent here.

`OCc1nc2ccc(-c3cccc4nc(Nc5ccc(C(F)(F)F)cc5)nn34)cc2[nH]1` [Example 409, (6-(2-(4-(trifluoromethyl)phenylamino)-[1,2,4]triazolo[1,5-a]pyridin-5-yl)-1H-benzo[d]imidazol-2-yl)methanol] and `COCc1nc2ccc(-c3cccc4nc(Nc5ccc(C(F)(F)F)cc5)nn34)cc2[nH]1` [Example 401, 5-(2-(methoxymethyl)-1H-benzo[d]imidazol-6-yl)-N-(4-(trifluoromethyl)phenyl)-[1,2,4]triazolo[1,5-a]pyridin-2-amine] fall in the same range of IC50: 0.005 to 250 nM for the first, 0.005 to 250 nM for the second.

`Cc1cc(Nc2nc3cccc(CN4CCNC(=O)C4)n3n2)cc2c1C(C)(C)C(=O)N2` [Example 546] and `CN(C)c1cccc2nc(Nc3ccc4c(c3)NC(=O)C4(C)C)nn12` [Example 566, 6-(5-(dimethylamino)-[1,2,4]triazolo[1,5-a]pyridin-2-ylamino)-3,3-dimethylindolin-2-one] fall in the same range of IC50: 0.005 to 250 nM for the first, 0.005 to 250 nM for the second.

First: O[C@H]1CC[C@@H](Oc2cccc3nc(Nc4ccc(F)cc4)nn23)CC1 [Example 417, cis-4-(2-(4-fluorophenylamino)-[1,2,4]triazolo[1,5-a]pyridin-5-yloxy)cyclohexanol]
Second: OC[C@H]1CC[C@@H](Nc2cccc3nc(Nc4ccc(C(F)(F)F)cc4)nn23)CC1 [Example 410, cis-(4-(2-(4-(trifluoromethyl)phenylamino)-[1,2,4]triazolo[1,5-a]pyrridin-5-ylamino)cyclohexyl)methanol]
The IC50 of the first is higher: 1000 to 10000 nM for the first, 0.005 to 250 nM for the second.

First: CC(=O)Nc1cccc2nc(Nc3ccccc3)nn12 [Example 527, N-(2-(phenylamino)-[1,2,4]triazolo[1,5-a]pyridin-5-yl)acetamide]
Second: C1=C(c2cccc3nc(Nc4ccccc4)nn23)CCNC1 [Example 513, N-phenyl-5-(1,2,3,6-tetrahydropyridin-4-yl)-[1,2,4]triazolo[1,5-a]pyridin-2-amine]
The IC50 of the first is lower: 500 to 1000 nM for the first, 1000 to 10000 nM for the second.

Compared with `NCCOc1cc(-c2cccc3nc(Nc4ccccc4)nn23)ccn1` [Example 444, 5-(2-(2-aminoethoxy)pyridin-4-yl)-N-phenyl-[1,2,4]triazolo[1,5-a]pyridin-2-amine], `CNCc1nc2ccc(-c3cccc4nc(Nc5ccc(F)cc5)nn34)cc2[nH]1` [Example 437, N-(4-fluorophenyl)-5-(2-((methylamino)methyl)-1H-benzo[d]imidazol-6-yl)-[1,2,4]triazolo[1,5-a]pyridin-2-amine] is lower in IC50: 250 to 500 nM for the first, 0.005 to 250 nM for the second.

`CCN1CCC(Cc2cccc3nc(Nc4ccc(C(F)(F)F)cc4)nn23)CC1` [Example 407, 5-((1-ethylpiperidin-4-yl)methyl)-N-(4-(trifluoromethyl)phenyl)-[1,2,4]triazolo[1,5-a]pyridin-2-amine] and `FC(F)(F)c1ccc(Nc2nc3cccc(N[C@@H]4CCCNC4)n3n2)cc1` [Example 468, (R)-N^5-(piperidin-3-yl)-N^2-(4-(trifluoromethyl)phenyl)-[1,2,4]triazolo[1,5-a]pyridin-2,5-diamine] fall in the same range of IC50: 500 to 1000 nM for the first, 500 to 1000 nM for the second.

First: Cc1noc2cc(Nc3nc4cccc(NC5CCOCC5)n4n3)ccc12 [Example 531, N^2-(3-methylbenzo[d]isoxazol-6-yl)-N^5-(tetrahydro-2H-pyran-4-yl)-[1,2,4]triazolo[1,5-a]pyridine-2,5-diamine]
Second: COCc1n[nH]c2cc(Nc3nc4cccc(CC5CCOCC5)n4n3)ccc12 [Example 552, N-(3-(methoxymethyl)-1H-indazol-6-yl)-5-((tetrahydro-2H-pyran-4-yl)methyl)-[1,2,4]triazolo[1,5-a]pyridin-2-amine]
The IC50 of the first is higher: 1000 to 10000 nM for the first, 0.005 to 250 nM for the second. The second is the more potent here.

For `Cc1n[nH]c2ncc(Nc3nc4cccc(CC5CCOCC5)n4n3)cc12` [Example 544, 3-methyl-N-(5-((tetrahydro-2H-pyran-4-yl)methyl)-[1,2,4]triazolo[1,5-a]pyridin-2-yl)-1H-pyrazolo[3,4-b]pyridin-5-amine], the IC50 was 500 to 1000 nM.

Same assay, conditions: activity levels A-D, read-out: Activity Level (IC50 in the Syk HTRF assay)

`OCC1CCCN(Cc2cccc3nc(Nc4ccc(C(F)(F)F)cc4)nn23)C1` (centres unmarked) [Example 273, (1-((2-(4-(trifluoromethyl)phenylamino)-[1,2,4]triazolo[1,5-a]pyridin-5-yl)methyl)piperidin-3-yl)methanol] and `O[C@H]1CCN(Cc2cccc3nc(Nc4ccc(C(F)(F)F)cc4)nn23)C1` [Example 336, (S)-1-((2-(4-(trifluoromethyl)phenylamino)-[1,2,4]triazolo[1,5-a]pyridin-5-yl)methyl)pyrrolidin-3-ol] fall in the same range of IC50: 1000 to 10000 nM for the first, 1000 to 10000 nM for the second.

`OCC1CCCN1Cc1cccc2nc(Nc3ccc(C(F)(F)F)cc3)nn12` (stereo in doubt) [Example 272, (R)-(1-((2-(4-(trifluoromethyl)phenylamino)-[1,2,4]triazolo[1,5-a]pyridin-5-yl)methyl)pyrrolidin-2-yl)methanol] and `OCCOc1cccc2nc(Nc3ccc(C(F)(F)F)cc3)nn12` [Example 315, 2-(2-(4-(trifluoromethyl)phenylamino)-[1,2,4]triazolo[1,5-a]pyridin-5-yloxy)ethanol] fall in the same range of IC50: 1000 to 10000 nM for the first, 1000 to 10000 nM for the second.

`CC1CN(Cc2cccc3nc(Nc4ccc(C(F)(F)F)cc4)nn23)CC(=O)N1` (centres unmarked) [Example 282, 6-methyl-4-((2-(4-(trifluoromethyl)phenylamino)-[1,2,4]triazolo[1,5-a]pyridin-5-yl)methyl)piperazin-2-one] and `O=C1CN(Cc2cccc3nc(Nc4ccc(C(F)(F)F)cc4)nn23)C(=O)N1` [Example 252, 1-((2-(4-(trifluoromethyl)phenylamino)-[1,2,4]triazolo[1,5-a]pyridin-5-yl)methyl)imidazolidine-2,4-dione] fall in the same range of IC50: 1000 to 10000 nM for the first, 1000 to 10000 nM for the second.

First: O[C@@H]1CCCC1Nc1cccc2nc(Nc3ccc(C(F)(F)F)cc3)nn12 (stereo in doubt) [Example 377, (1R,2R)-2-(2-(4-(trifluoromethyl)phenylamino)-[1,2,4]triazolo[1,5-a]pyridin-5-ylamino)cyclopentanol]
Second: CC(C)(O)[C@H]1CC[C@@H](Nc2cccc3nc(Nc4ccc(C(F)(F)F)cc4)nn23)CC1 [Example 385, cis-2-(4-(2-(4-(trifluoromethyl)phenylamino)-[1,2,4]triazolo[1,5-a]pyridin-5-ylamino)cyclohexyl)propan-2-ol]
The IC50 of the first is lower: 0.005 to 250 nM for the first, 500 to 1000 nM for the second. The first is the more potent here.

First: CC(c1cc[nH]c(=O)c1)c1cccc2nc(Nc3ccc(C(F)(F)F)cc3)nn12 (centres unmarked) [Example 211, 4-(1-(2-(4-(trifluoromethyl)phenylamino)-[1,2,4]triazolo[1,5-a]pyridin-5-yl)ethyl)pyridin-2(1H)-one]
Second: OC1CCN(c2cccc3nc(Nc4ccc(C(F)(F)F)cc4)nn23)C1 (stereo in doubt) [Example 333, (S)-1-(2-(4-(trifluoromethyl)phenylamino)-[1,2,4]triazolo[1,5-a]pyridin-5-yl)pyrrolidin-3-ol]
The IC50 of the first is lower: 0.005 to 250 nM for the first, 250 to 500 nM for the second. The first is the more potent here.

With `CN(C)c1ccc(Nc2nc3cccc(N[C@H]4CC[C@@H](O)CC4)n3n2)cn1` [Example 392, cis-4-(2-(6-(dimethylamino)pyridin-3-ylamino)-[1,2,4]triazolo[1,5-a]pyridin-5-ylamino)cyclohexanol] the IC50 was 250 to 500 nM.

Same assay, conditions: read-out: Activity Level (Syk HTRF assay IC50)

First: Cc1nc2ccc(Nc3nc4cccc(-c5cccc(O)c5)n4n3)cc2[nH]1 [compound 10, 3-(2-(2-methyl-1H-benzo[d]imidazol-6-ylamino)-[1,2,4]triazolo[1,5-a]pyridin-5-yl)phenol]
Second: N#Cc1cccc(Nc2nc3cccc(-c4ccccc4)n3n2)c1 [compound 66, 3-(5-phenyl-[1,2,4]triazolo[1,5-a]pyridin-2-ylamino)benzonitrile]
The IC50 of the first is lower: 0.005 to 250 nM for the first, 1000 to 10000 nM for the second.

`CC1(C)C(=O)Nc2cc(Nc3nc4cccc(CN5CCNC(=O)C5)n4n3)ccc21` [Example 172, 3,3-dimethyl-6-(5-((3-oxopiperazin-1-yl)methyl)-[1,2,4]triazolo[1,5-a]pyridin-2-ylamino)indolin-2-one] and `CC1(C)C(=O)Nc2cc(Nc3nc4cccc(OC5CCOCC5)n4n3)ccc21` [Example 168, 3,3-dimethyl-6-(5-(tetrahydro-2H-pyran-4-yloxy)-[1,2,4]triazolo[1,5-a]pyridin-2-ylamino)indolin-2-one] fall in the same range of IC50: 0.005 to 250 nM for the first, 0.005 to 250 nM for the second.

`O=C1c2ccc(Nc3nc4cccc(N[C@H]5CC[C@@H](O)CC5)n4n3)cc2CN1CCO` [Example 198, cis-5-(5-(4-hydroxycyclohexylamino)-[1,2,4]triazolo[1,5-a]pyridin-2-ylamino)-2-(2-hydroxyethyl)isoindolin-1-one] and `Cc1cc(Nc2nc3cccc(N[C@H]4CC[C@@H](O)CC4)n3n2)cnc1N1CCOCC1` [compound 105, cis-4-(2-(5-methyl-6-morpholinopyridin-3-ylamino)-[1,2,4]triazolo[1,5-a]pyridin-5-ylamino)cyclohexanol] fall in the same range of IC50: 0.005 to 250 nM for the first, 0.005 to 250 nM for the second.

First: CNC(=O)c1ccc(Nc2nc3cccc(-c4ccccc4F)n3n2)cc1 [compound 21, 4-(5-(2-fluorophenyl)-[1,2,4]triazolo[1,5-a]pyridin-2-ylamino)-N-methylbenzamide]
Second: O=c1cc(C(O)c2cccc3nc(Nc4ccc(C(F)(F)F)cc4)nn23)nc[nH]1 (centres unmarked) [Example 193, 6-(hydroxy(2-(4-(trifluoromethyl)phenylamino)-[1,2,4]triazolo[1,5-a]pyridin-5-yl)methyl)pyrimidin-4(3H)-one]
The IC50 of the first is higher: 500 to 1000 nM for the first, 0.005 to 250 nM for the second. The second is the more potent here.

`Cc1cc(Nc2nc3cccc(CC4CCOCC4)n3n2)cc2c1C(C)(C)C(=O)N2` [compound 126] and `Cc1n[nH]c2cc(Nc3nc4cccc(NC[C@H]5CC[C@H](O)C5)n4n3)ccc12` [Example 181, (1S,3S)-3-((2-(3-methyl-1H-indazol-6-ylamino)-[1,2,4]triazolo[1,5-a]pyridin-5-ylamino)methyl)cyclopentanol] fall in the same range of IC50: 0.005 to 250 nM for the first, 0.005 to 250 nM for the second.
